# According to patent US8933132B2, “Tricyclic substituted benzenesulfonamide piperazine derivatives as CAV2.2 calcium channel blockers” (Convergence Pharmaceuticals Limited, priority 2011, dated 2015):
# Biological target: T1, hCav2.2 (Homo sapiens, UniProt Q00975)
# T1 construct: expressed in transfected cells; plasmids pCIN5-hCav2.2, pCIH-hCav β3, pCIP-α2δ1
# Assay: hCav2.2 assay (IonWorks planar array electrophysiology, stable HEK293 cell line)
# Assay type: cell-based
# Details: inhibition of current elicited by the 1st depolarising pulse by 50%; HEK293 cells expressing human Cav2.2 α1B/β3/α2δ1; read-out: tonic pIC50 (converted)
# Method: Compounds as defined in the first to third aspects may be tested for in vitro biological activity in the hCav2.2 assay in accordance with the following studies:
# Stable cell lines expressing the human Cav2.2 α (α1B) subunit, along with the human β3 and α2δ1 auxiliary subunits were created following sequential transfection and selection of human embryonic kidney (HEK293) cells. HEK293 cells were cultured in Dulbecco's modified Eagles media/F12 media (Invitrogen, Cat #041-95750V) containing 10% fetal bovine serum, with added L-glutamine (2 mM; Invitrogen, Cat #25030-024) and non-essential amino acids (5%; Invitrogen, Cat #11140-035). Initially HEK293 cells were transfected with two plasmid vectors for expression of the hCav2.2 α subunit (pCIN5-hCav2.2 which carries a neomycin resistance marker) and the hCav β3 subunit (pCIH-hCav β3 which carries a hygromycin resistance marker). Clonal cell lines were isolated following selection in media supplemented with 0.4 mg ml^−1 Geneticin G418 (Invitrogen, Cat #10131-027) and 0.1 mg ml^−1 hygromycin (Invitrogen, Cat #10687-010). These clonal cell lines were assessed for Cav2.2 α/β3-mediated current expression using the IonWorks planar array electrophysiology technology (described below). A clonal line was identified that gave a reasonable level of functional Cav2.2 α/β3 current expression. This cell line was transfected with a plasmid vector for expression of the human α2δ1 subunit (pCIP-α2δ1 which carries a puromycin resistance marker) and clonal cell lines isolated following selection in media containing 0.62 μg ml^−1 puromycin (Sigma, Cat # P-7255), in addition to 0.4 mg ml^−1 Geneticin G418 and 0.1 mg ml^−1 hygromycin. […]
# Currents were recorded at room temperature (21-23° C.) using the IonWorks planar array electrophysiology technology (Molecular Devices Corp.). […] In all experiments, the test pulse protocol was performed in the absence (pre-read) and presence (post-read) of a compound. Pre- and post-reads were separated by a compound addition followed by a 3-3.5 min incubation. […]
# T1 sequence (Q00975 whole entry): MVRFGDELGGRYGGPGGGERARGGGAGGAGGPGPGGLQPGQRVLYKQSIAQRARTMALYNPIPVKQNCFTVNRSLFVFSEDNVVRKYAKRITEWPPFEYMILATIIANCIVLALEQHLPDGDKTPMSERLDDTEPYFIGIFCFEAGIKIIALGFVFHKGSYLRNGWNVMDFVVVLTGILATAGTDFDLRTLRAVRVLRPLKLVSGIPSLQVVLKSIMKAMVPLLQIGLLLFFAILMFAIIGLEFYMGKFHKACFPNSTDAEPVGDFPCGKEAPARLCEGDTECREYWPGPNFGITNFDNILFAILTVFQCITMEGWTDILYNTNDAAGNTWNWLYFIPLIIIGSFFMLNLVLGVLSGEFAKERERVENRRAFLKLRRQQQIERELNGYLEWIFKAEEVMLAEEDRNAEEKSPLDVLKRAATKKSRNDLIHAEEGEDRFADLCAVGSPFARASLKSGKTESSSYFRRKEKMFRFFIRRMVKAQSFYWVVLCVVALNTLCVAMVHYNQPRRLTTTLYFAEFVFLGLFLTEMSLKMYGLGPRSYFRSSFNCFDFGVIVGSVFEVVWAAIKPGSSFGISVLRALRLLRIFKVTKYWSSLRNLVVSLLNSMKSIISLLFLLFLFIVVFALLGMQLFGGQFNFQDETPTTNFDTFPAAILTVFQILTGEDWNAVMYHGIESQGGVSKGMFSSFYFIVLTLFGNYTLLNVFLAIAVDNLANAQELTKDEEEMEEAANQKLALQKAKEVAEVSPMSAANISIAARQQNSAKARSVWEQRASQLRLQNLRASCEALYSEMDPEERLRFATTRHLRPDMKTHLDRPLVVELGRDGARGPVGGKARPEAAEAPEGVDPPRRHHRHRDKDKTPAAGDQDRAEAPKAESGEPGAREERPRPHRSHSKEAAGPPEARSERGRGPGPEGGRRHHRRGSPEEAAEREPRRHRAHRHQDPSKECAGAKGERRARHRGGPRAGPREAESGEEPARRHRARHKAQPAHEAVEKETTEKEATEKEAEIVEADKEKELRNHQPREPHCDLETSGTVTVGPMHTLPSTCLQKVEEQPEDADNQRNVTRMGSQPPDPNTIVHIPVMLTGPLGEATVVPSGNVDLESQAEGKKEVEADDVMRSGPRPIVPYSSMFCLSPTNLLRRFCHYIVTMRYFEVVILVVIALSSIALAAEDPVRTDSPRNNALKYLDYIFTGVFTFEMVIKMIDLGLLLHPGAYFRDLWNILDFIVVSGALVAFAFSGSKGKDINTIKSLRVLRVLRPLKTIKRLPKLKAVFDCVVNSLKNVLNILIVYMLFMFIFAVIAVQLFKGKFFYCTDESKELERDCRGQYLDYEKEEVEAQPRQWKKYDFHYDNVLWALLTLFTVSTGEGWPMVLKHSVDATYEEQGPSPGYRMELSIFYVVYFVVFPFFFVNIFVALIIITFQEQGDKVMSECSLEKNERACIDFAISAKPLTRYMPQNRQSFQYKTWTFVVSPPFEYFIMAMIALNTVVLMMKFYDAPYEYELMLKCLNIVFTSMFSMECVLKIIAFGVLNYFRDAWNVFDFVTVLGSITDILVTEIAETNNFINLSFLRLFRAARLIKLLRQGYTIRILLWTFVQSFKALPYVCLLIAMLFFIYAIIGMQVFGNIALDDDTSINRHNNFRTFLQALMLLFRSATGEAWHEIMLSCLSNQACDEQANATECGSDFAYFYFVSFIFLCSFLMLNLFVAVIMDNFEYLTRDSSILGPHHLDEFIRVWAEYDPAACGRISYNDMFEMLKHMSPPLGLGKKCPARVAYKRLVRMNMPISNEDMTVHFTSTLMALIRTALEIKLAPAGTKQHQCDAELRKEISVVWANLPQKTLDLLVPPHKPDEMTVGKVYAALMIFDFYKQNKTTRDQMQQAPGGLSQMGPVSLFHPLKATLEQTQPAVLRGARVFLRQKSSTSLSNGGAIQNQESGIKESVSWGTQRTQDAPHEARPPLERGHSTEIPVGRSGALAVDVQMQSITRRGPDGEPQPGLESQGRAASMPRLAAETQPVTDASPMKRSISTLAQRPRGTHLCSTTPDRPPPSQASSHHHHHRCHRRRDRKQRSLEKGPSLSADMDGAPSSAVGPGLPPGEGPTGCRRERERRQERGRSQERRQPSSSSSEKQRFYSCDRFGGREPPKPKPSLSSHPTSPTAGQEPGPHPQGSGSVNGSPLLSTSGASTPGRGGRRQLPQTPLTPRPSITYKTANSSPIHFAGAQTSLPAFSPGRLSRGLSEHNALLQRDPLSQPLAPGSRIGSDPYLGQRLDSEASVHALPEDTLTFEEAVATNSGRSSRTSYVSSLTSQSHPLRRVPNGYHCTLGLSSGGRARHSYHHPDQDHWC
row,IC50,SMILES
1,≤ 31.6 µM,"Cc1cc(C(F)(F)F)ccc1S(=O)(=O)N1CCN2C(=O)c3cccnc3C2C1 (single isomer, unassigned) [24/25 (slower running enantiomer)]"
2,100 µM,"Cc1ccc2c(n1)C1CN(S(=O)(=O)c3ccc(OC(C)C)cc3)CCN1C2=O (stereo not drawn) [Compound 2, 2-Methyl-9-({4-[(1-methylethyl)oxy]phenyl}sulfonyl)-8,9,10,10a-tetrahydropyrido[2′,3′:3,4]pyrrolo-[1,2-a]pyrazin-5(7H)-one]"
3,≤ 31.6 µM,"Cc1ccc2c(n1)C1CN(S(=O)(=O)c3ccc(C(F)(F)F)cc3C)CCN1C2=O (stereo not drawn) [Compound 18, 2-Methyl-9-{[2-methyl-4-(trifluoromethyl)phenyl]sulfonyl}-8,9,10,10a-tetrahydropyrido[2′,3′:3,4]pyrrolo-[1,2-a]pyrazin-5(7H)-one]"
